The text below walks through data of ChEMBL document CHEMBL1201862, “PubChem BioAssay data set” (2004).

Test systems include A549; ACHN; BT-549; CCRF-CEM; HCT-116; HCT-15; HL-60; HOP-92; KM12; LOX IMVI; MDA-N; NCI-H460; OVCAR-5; SF-295; SF-539; SK-MEL-2; SW-620; U-251; UO-31.
Common to all, as to test: NCI anticancer screen, dose series, 48 h

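Exposure lasted 48 hours, with cells grown in 96-well plates and compounds tested at five concentrations. The concentration for 50% growth inhibition is given as GI50.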 Active and inactive are the calls of the source. No stated cut-off is given here; in the data, active = GI50 up to about 1.1 µM and inactive = higher. Bounds are passed on as bounds.

In the case of `Cc1cc2cc3c(cc2c(-c2ccc([N+](=O)[O-])cc2)n1)OCO3`, the GI50 was 25.8 µM (inactive) with A549; 29.9 µM (inactive) in the assay on ACHN; 17.2 µM (inactive) with BT-549; 31.6 µM (inactive) in the assay with CCRF-CEM; 36.8 µM (inactive) in the assay on HCT-116; 26.5 µM with HCT-15. For the same compound, the GI50 in the assay with HL-60 was 57.5 µM (inactive); in the assay with HOP-92 it was 3.77 µM (inactive); with KM12, 25.1 µM (inactive); in the assay with LOX IMVI it was 41.2 µM (inactive); with MDA-N, 54.2 µM (inactive); in the assay on NCI-H460 it was 29.7 µM (inactive). For the same compound, the GI50 in the assay with OVCAR-5 was > 100 µM (inactive); in the assay with SF-295, 50 µM (inactive); in the assay with SF-539, 22.6 µM (inactive); with SK-MEL-2, 39.1 µM (inactive); with SW-620, 29.4 µM (inactive); in the assay with U-251, 23.7 µM (inactive). Also, the GI50 in the assay on UO-31 was 13.5 µM (inactive).
In the case of `CCOP(=O)(OCC)C(Nc1ccc(F)cc1)c1cccc([N+](=O)[O-])c1` (stereo unspecified), the GI50 in the assay with A549 was 58.7 µM (inactive); in the assay with ACHN, > 100 µM (inactive); with BT-549, 89.3 µM (inactive); with CCRF-CEM, 62.4 µM (inactive); in the assay with HCT-116, 46.8 µM (inactive); in the assay on HCT-15, 83.8 µM. For the same compound, the GI50 in the assay on HL-60 was 41.3 µM (inactive); in the assay with HOP-92 it was 37.9 µM (inactive); in the assay with KM12, 94 µM (inactive); with LOX IMVI, > 100 µM (inactive); with MDA-N it was > 100 µM (inactive); in the assay on NCI-H460, 65.9 µM (inactive). Moreover, the GI50 in the assay on OVCAR-5 was > 100 µM (inactive); in the assay on SF-295, > 100 µM (inactive); in the assay on SF-539, > 100 µM (inactive); in the assay with SK-MEL-2, 49.7 µM (inactive); in the assay with SW-620, > 100 µM (inactive); in the assay with U-251 it was > 100 µM (inactive). The GI50 in the assay with UO-31 is 40.6 µM (inactive).
As to `Fc1cc(C2=C[C@H](c3ccc(Cl)cc3)NC(=S)N2)c(Cl)cc1Cl`, the GI50 in the assay with A549 is 47.3 µM (inactive); in the assay with ACHN, 37.8 µM (inactive); in the assay with BT-549, > 100 µM (inactive); in the assay on CCRF-CEM, 28.9 µM (inactive); in the assay with HCT-116, 35.8 µM (inactive); in the assay on HCT-15, 46.8 µM. Besides, the GI50 in the assay on HL-60 is 20.6 µM (inactive); in the assay on HOP-92 it was 27.2 µM (inactive); in the assay on KM12, 49.4 µM (inactive); in the assay on LOX IMVI, 48.6 µM (inactive); with MDA-N it was 47.4 µM (inactive); in the assay on NCI-H460 it was 34 µM (inactive). Moreover, the GI50 was > 100 µM (inactive) in the assay on OVCAR-5; 28.2 µM (inactive) in the assay on SF-295; > 100 µM (inactive) in the assay on SF-539; 27.2 µM (inactive) in the assay on SK-MEL-2; 70.6 µM (inactive) with SW-620; 29.6 µM (inactive) in the assay with U-251. For the same compound, the GI50 in the assay on UO-31 was 42.2 µM (inactive).
Regarding `C=C[C@@]1(C)CC(=O)[C@]2(O)[C@@]3(C)[C@@H](O)CCC(C)(C)[C@@H]3[C@H](O)[C@@H](OC(C)=O)[C@@]2(C)O1`, the GI50 is > 100 µM (inactive) in the assay on A549; > 100 µM (inactive) with ACHN; > 100 µM (inactive) with BT-549; > 100 µM (inactive) with CCRF-CEM; > 100 µM (inactive) in the assay with HCT-116; greater than 100 µM in the assay with HCT-15. The GI50 is 48.6 µM (inactive) in the assay on HL-60; > 100 µM (inactive) with HOP-92; 1.7 µM (inactive) in the assay on KM12; > 100 µM (inactive) with LOX IMVI; > 100 µM (inactive) with MDA-N; > 100 µM (inactive) with NCI-H460. Further, the GI50 is 72.6 µM (inactive) in the assay on OVCAR-5; > 100 µM (inactive) in the assay on SF-295; > 100 µM (inactive) with SF-539; > 100 µM (inactive) in the assay with SK-MEL-2; > 100 µM (inactive) in the assay with SW-620; > 100 µM (inactive) in the assay on U-251. Besides, in the assay on UO-31, the GI50 is 60.4 µM (inactive).
`Cc1cc(C)c(C[C@H]2COC(=O)[C@]2(O)Cc2c(C)cc(C)cc2C)c(C)c1`: the GI50 with A549 is 15.7 µM (inactive); with ACHN, 18.2 µM (inactive); with BT-549 it was 18.4 µM (inactive); in the assay with CCRF-CEM, 31.7 µM (inactive); in the assay on HCT-116, 20.7 µM (inactive); in the assay with HCT-15 it was 17.3 µM. Further, the GI50 in the assay with HL-60 was 14.7 µM (inactive); in the assay on HOP-92 it was 14.2 µM (inactive); with KM12 it was 18.3 µM (inactive); in the assay on LOX IMVI, 17.8 µM (inactive); with MDA-N, 19.8 µM (inactive); with NCI-H460, 16.8 µM (inactive). The GI50 in the assay with OVCAR-5 is 17.1 µM (inactive); in the assay with SF-295, 16.9 µM (inactive); in the assay on SF-539, 23.9 µM (inactive); with SK-MEL-2, 23.1 µM (inactive); in the assay on SW-620, 20.9 µM (inactive); with U-251, 18.9 µM (inactive). In the assay on UO-31, the GI50 is 19.6 µM (inactive).
As to `O=C(/C=C/c1ccc(O)cc1)c1cc(-c2cc(CCC(=O)c3ccc(O)cc3O)ccc2O)c(O)cc1O`, the GI50 with A549 was > 50 µM (inactive); in the assay on ACHN, > 50 µM (inactive); in the assay on BT-549, 36.1 µM (inactive); in the assay on CCRF-CEM, 13.1 µM (inactive); with HCT-116, 19.8 µM (inactive); with HCT-15, greater than 50 µM. For the same compound, the GI50 in the assay with HL-60 was 17.9 µM (inactive); with HOP-92, 15.2 µM (inactive); in the assay with KM12, 19.8 µM (inactive); in the assay with LOX IMVI, 19.5 µM (inactive); with MDA-N it was 19.1 µM (inactive); in the assay on NCI-H460, 23.8 µM (inactive). The GI50 with OVCAR-5 was > 50 µM (inactive); in the assay with SF-295 it was 22.3 µM (inactive); in the assay with SF-539, 10.8 µM (inactive); in the assay with SK-MEL-2 it was 33.7 µM (inactive); in the assay on SW-620, 29.9 µM (inactive); in the assay with U-251, 17.5 µM (inactive). In addition, in the assay with UO-31, the GI50 is > 50 µM (inactive).
Regarding `Nc1nccc(NCC2(CO)CC(OCc3ccccc3)C2)n1` (stereo unspecified), the GI50 in the assay with A549 is > 100 µM (inactive); in the assay on ACHN, > 100 µM (inactive); in the assay on BT-549, > 100 µM (inactive); in the assay with CCRF-CEM it was > 100 µM (inactive); in the assay with HCT-116, 90.4 µM (inactive); with HCT-15 it was greater than 100 µM. The GI50 was > 100 µM (inactive) in the assay with HL-60; 56.9 µM (inactive) in the assay on HOP-92; > 100 µM (inactive) with KM12; > 100 µM (inactive) with LOX IMVI; > 100 µM (inactive) in the assay with MDA-N; > 100 µM (inactive) in the assay on NCI-H460. Further, the GI50 in the assay on OVCAR-5, in the assay on SF-295, with SF-539, in the assay on SK-MEL-2, in the assay with SW-620 and in the assay on U-251 was > 100 µM (inactive) each time. For the same compound, the GI50 in the assay with UO-31 was 84.5 µM (inactive).
Take `O=c1ccn([C@@H]2C[C@H]2CO)c(=O)[nH]1`: the GI50 with A549 is > 100 µM (inactive); in the assay with ACHN, > 100 µM (inactive); with BT-549, > 100 µM (inactive); with CCRF-CEM, > 100 µM (inactive); in the assay with HCT-116, > 100 µM (inactive); with HCT-15 it was greater than 100 µM. The GI50 in the assay on HL-60, in the assay on HOP-92, in the assay with KM12, in the assay on LOX IMVI, with MDA-N and with NCI-H460 was > 100 µM (inactive) throughout. For the same compound, the GI50 with OVCAR-5, with SF-539, in the assay with SK-MEL-2, with SW-620, in the assay with U-251 and in the assay with UO-31 was > 100 µM (inactive) throughout.
